Measurements from patent publication US10092506B2, “Encapsulation of lipophilic or amphiphilic therapeutic agents in nano-emulsion” (COMMISSARIAT A L'ENERGIE ATOMIQUE ET AUX ENERGIES …, priority 2008, dated 2018).

Legend:
[1] = fluorescence quantum yield with reference to Nile Blue perchlorate in ethanol; assay type: physicochemical; settings: in toluene
Experimental: The fluorescence quantum yield of various photosensitizers formulated in a nano-emulsion and in solvent was measured with reference to Nile Blue perchlorate in ethanol, λexc 605 nm (Fref=0.27).

[2] = physico-chemical behaviour of taxol under nano-emulsion preparation and analysis conditions; assay type: physicochemical; settings: after ultrasound, heat treatment (4 h at 60° C.) and analytical conditions (acetonitrile/water mixture)

| Fluorescence quantum yield F [1] | degradation of taxol [2] | SMILES |
| --- | --- | --- |
| 0.38 | – | C1=Cc2nc1c(-c1ccccc1)c1ccc([nH]1)c(-c1ccccc1)c1nc(c(-c3ccccc3)c3ccc([nH]3)c2-c2ccccc2)CC1 [mTPC, meso-tetraphenylchlorine] |
| – | absence of degradation | CC(=O)O[C@H]1C(=O)[C@@]2(C)[C@H]([C@H](OC(=O)c3ccccc3)[C@]3(O)C[C@H](OC(=O)[C@H](O)[C@@H](NC(=O)c4ccccc4)c4ccccc4)C(C)=C1C3(C)C)[C@]1(OC(C)=O)CO[C@@H]1C[C@@H]2O [paclitaxel] |
